Measured values as given in patent US9988626B2, “Neurocalcin delta inhibitors and therapeutic and non-therapeutic uses thereof” (Universität Zu Köln, priority 2013, dated 2018).

Tests used:
Assay type in all cases: in vivo
zebrafish larvae [1] = experiment: TEM analysis of synaptic cleft width of zebrafish NMJs
Protocol: Whole zebrafish larvae were fixed in 4% PFA for 30 min and postfixed in 0.6% glutaraldehyde for 24 h. Larvae were embedded in Epoxy resin (Plano) and cross sections were performed according to previously described and adapted TEM protocol (Voigt et al. 2010). Thickness of semi-thin and ultra-thin sections was 0.5 μm and 0.1 μm, respectively. Image acquisition was performed as described in the supplement. Image acquisition was performed using the TEM CM10 (Philips) microscope with the Orius SC200W 1 Gatan camera and Digital Micrograph software.
48 hpf zebrafish larvae were fixed in 4% PFA for 30 min and postfixed in 0.6% glutaraldehyde for another day. Gold-labeled secondary antibodies were used for co-localization studies of Ncald and Clathrin. Image acquisition of ultra-thin sections with a thickness of […] was performed using the TEM CM10 (Philips) microscope with the Orius SC200W 1 Gatan camera and the Digital Micrograph software.
48 hpf zebrafish larvae were fixed in 4% PFA for […] and postfixed in 0.6% glutaraldehyde for another day. Samples were then prepared and embedded in resin as previously described. The thickness of semi-thin and ultra-thin sections was […], respectively. For immunogold stainings, in brie pre-stained sections were blocked and afterwards incubated with primary antibodies (anti-clathrin, 1:50, anti-NCALD, 1:50) and washed in PBS; after that sections were stained with gold-labelled secondary antibodies (donkey anti-mouse 6 nm gold, 1:100; goat anti-rabbit 20 nm gold 1:100; Abeam). Image acquisition was performed using the TEM CM10 (Philips) microscope with the Orius SC200W 1 Gatan camera and the Digital Micrograph software.

zebrafish embryos = experiment: Whole cell current clamp recordings of endplate potentials in zebrafish ventral fast muscle cells
Protocol: Experiments were conducted with zebrafish embryos (wildtype (wt) contras, smn-, ncald-, and smn/ncald-morphants) 72 hours post fertilization. The animals were anesthetized with 0.02% tricaine (in saline; E10521, Sigma-Aldrich, Taufkirchen, Germany) for 1-2 min and then rinsed with saline. The saline contained (in mM): 134 NaCl, 2.9 KCl, 2.1 CaCl2, 1.2 MgCl2, 10 HEPES, 10 Glucose adjusted to pH 7.8 with NaOH. The fish were decapitated and pinned under saline in a Sylgard-coated (SYLG184, Dow Coming, Midland, Mich.) recording chamber (˜3 ml volume). The skin was peeled off using a sharp tungsten pin and fine forceps and the preparation was incubated in 3 M formamide (in saline; 6749.1, Carl Roth GmbH, Karlsruhe) for 2 min to prevent muscle contractions. After rinsing the preparation, the superficial layer of ventral slow muscle cells was removed by gently scratching with a fine tungsten pin to expose deeper lying fast skeletal muscle cells. Remaining superficial slow muscles in the segments of interest were removed with a low resistance pipette (˜2 MΩ). […] Muscle cells were visualized with a fixed-stage upright microscope (Zeiss Axio Examiner, Carl Zeiss Microscopy GmbH, Jena, Germany), using a 40× water immersion objective (W Plan-Apochromat, 40×; 1.0 numerical aperture; 2.5 mm working distance; Zeiss) with infrared-differential interference contrast (Dodt and Zieglgansberger 1990) and fluorescence optics. […]
Whole-cell patch clamp recordings in current-clamp mode were performed with an EPC10 patch-clamp amplifier (HEKA-Elektronik, Lambrecht, Germany) that was controlled by the program Patchmaster (version 2.53, HEKA-Elektronik) running under Windows. […] The calculated liquid junction potential between intracellular and extracellular solution of 5.8 mV (calculated with Patcher's-Power-Tools plug-in from http://www.mpibpc.gwdg.de/abteilungen/140/software/index.html for Igor Pro 6 [Wavemetrics, Portland, Oreg., USA]) was also compensated. Whole-cell capacitance was determined by using the capacitance compensation (C-slow) of the EPC10. […]

zebrafish larvae [2] = experiment: High-speed tracking of zebrafish swimming velocity after electric stimulation; details: 48 hpf zebrafish, n=30 per treatment
Protocol: To analyse the swimming behaviour of zebrafish morphants, high-speed imaging was performed. In brief 30 zebrafish larvae, all treated with each respective morpholino, were placed in a 10 cm petri dish containing fish embryo medium. To trigger a swimming response, fish were stimulated with an electrical impulse (60 V; delay: 60 ms, duration: 4 ms, frequency: 6 pps (SD9 Stimulator)). Swimming behaviour was recorded with 120 frames per second using a high-speed camera (FC-100, Casio). Quality of the high-speed video was optimized for analysis (Adobe) and afterwards swimming velocity and distance was analysed using LoliTrack software (Loligo Systems).

[3] = MO-injected 48 hpf fish, N=3, n=5 (FIG. 17E)

smn MO: previously published morpholino knocking down zebrafish smn, CGACATCTTCTGCACCATTGGC (all phosphorodiamidate morpholino (PMO))
Width of synaptic cleft / NMJ maturation (zebrafish larvae [1]; Example 1, FIG. 8, 34 hpf zebrafish larvae): significant reduction of the width of the synaptic cleft | Width of synaptic cleft, mean (zebrafish larvae [1]; [3]): 30.26 nm | Width of synaptic cleft, median (zebrafish larvae [1]; [3]): 23.51 nm | Frequency of large NMDA-induced EPP / action potentials (zebrafish embryos; 72 hpf zebrafish, ventral fast muscle cells, NMDA (100 μM) stimulation): 0.37±0.17 Hz | Spontaneous mEPP frequency at rest (zebrafish embryos; 72 hpf zebrafish, ventral fast muscle cells, without stimulation): 0.32±0.16 Hz | Resting and NMDA induced EPP activity (zebrafish embryos; zebrafish morphants compared to wild type): significant reduction of the mEPP and the EPP rate | Swimming velocity after electrical stimulation (zebrafish larvae [2]): significantly reduced velocity
